Values quoted from earlier work in patent US20090019042A1, “Method Of Screening Compound Regulating The Translation Of Specific mRNA” (Takeda Pharmaceutical Company Limited, priority 2004, published 2009).

How the values were obtained:
LysC mRNA = settings: L-lysine recognised by LysC mRNA
xpt-pbux mRNA = settings: guanine recognised by xpt-pbux mRNA

Kd (xpt-pbux mRNA) [nM] | Structure (SMILES) | Kd (LysC mRNA) [nM]
 | NCCCC[C@H](N)C(=O)O [L-lysine] | 1000
< 5 | Nc1nc2nc[nH]c2c(=O)[nH]1 [guanine] | 
